# Values quoted from earlier work in patent US9090623B2, “Compound JK12A and preparation thereof” (LIANYUNGANG JINKANG HEXIN PHARMACEUTICAL CO., LTD., priority 2012, dated 2015).
# Test system: HeLa S3 cells
# Details: reported in Org. Lett. 2008, 10, 489-491; cited from earlier work
smiles,measurement,value
COC(=O)c1ccc(N2CC3CNC(=O)C2(C(=O)OC)N3C)cc1 (stereo not shown) [Aplaminal],cytotoxicity against HeLa S3 cells IC50,0.51 µg/mL
